Entries after “also recorded” stand apart in the source; their conditions may differ.

The source of these data is patent US20250326799A1, “AGENTS INDUCING VASCULARISATION” (Coegin Pharma AB, priority 2022, published 2025).

Experiment [1] deals with human coronary artery smooth muscle cells (HCASMCs). In words: BrdU cell proliferation in HCASMCs. To be noted: for smooth muscle cell proliferation (BrdU incorporation): addition of the peptide; for vascular smooth muscle cell proliferation (DNA synthesis, uptake of BrdU, O.D. 450 nm): 10 nM, 100 nM, 1000 nM, compared to control. It counts as cell-based. How it is done: (§1) Cell proliferation was evaluated with BrdU Cell Proliferation Elisa Kit (Abcam, UK). After incubation at 37° C. overnight with respective complete medium, for NRP-1 knock down-relative experiments, HUVECs and HCASMCs on 96-well plates were transfected with siRNA/siRNA-NC directly; for test polypeptide stimulations, HUVECs and HCASMCs were starved with low-serum condition for additional 24 hours and 48 hours before treatments. At 32 hours after transfection or polypeptide stimulations, cells were cultured with BrdU reagent for another 16 hours to determine cell proliferation. Subsequent steps were performed as manufacturer's instructions and data were read by Wallac 1420 Victor 2 (Perkin Elmer, USA).
The effect of FOL-026 peptide treatment on smooth muscle cell proliferation (FIG. 25a) and apoptosis (FIG. 25c) induced with low-oxygen condition was evaluated with the uptake of BrdU (n=10 per group) and active caspase-3/-7 (n=6-8 per group) separately. H2O2 measurement (FIG. 25b) of smooth muscle cells pre-incubated with FOL-26 peptides after 50 ug/ml oxidized Low-density Lipoprotein (oxLDL) stimulation for 2 hours (n=6-7 per group). Representative images of scratch wound assay in vitro are shown (FIG. 26a) and the ability of wound healing (FIG. 26b) in human coronary smooth muscle cells (HCASMCs) treated with FOL-026 peptides was measured by image J software (n=10 per group). Scale bar=150 um. Data are presented as means±SEM and acquired from 3 to 4 independent replicate tests. *P<0.05, **P<0.01, ***P<0.001, ****P<0.0001 by one-way ANOVA and Dunnett's post-hoc test.
The effect of FOL-005 peptide on smooth muscle cell proliferation (FIG. 30a) was determined with BrdU incorporation in peptide-treated human coronary smooth muscle cells (HCASMCs). Scratch wound assay (FIG. 30b) of HCASMCs incubated with FOL-005 peptides for 5 hours was measured by image J software (n=10-12 per group) and representative pictures of smooth muscle cell migration into an in vitro scratch injury were shown (FIG. 30c). Scale bar=150 um.

Experiment [2] deals with Human umbilical cord endothelial cells (HUVECs). The experiment is described as follows: BrdU cell proliferation in HUVECs. It is filed as cell-based. To be noted: for proliferation of human umbilical vascular endothelial cells (BrdU uptake): addition of the peptide, increasing concentration; for endothelial cell proliferation (DNA synthesis, uptake of BrdU, O.D. 450 nm): 10 nM, 100 nM, 1000 nM, compared to control; for stimulation of endothelial cell proliferation (BrdU) after NRP-1 knock-down: HUVECs treated with siRNA-NC or siRNA for NRP-1, then peptide. How it is done: as §1
For stimulation of endothelial cell proliferation, human umbilical cord endothelial cells were first treated with a scramble non-coding siRNA (NC) or siRNA for NRP-1, subsequently they were treated with FOL26 in concentrations of 10 nM, 100 nM, and 1000 nM, and DNA synthesis analyzed by measuring the uptake of BrdU.
The impact of FOL-026 peptide on human umbilical vascular endothelial cells (HUVECs) proliferation (FIG. 18a) and apoptosis (FIG. 18c) induced with low-oxygen condition was determined by BrdU uptake (n=8-9 per group) and active caspase-3/-7 (n=7-10 per group) separately. The ROS level (FIG. 18b) activated by 50 ug/ml oxidized Low-density Lipoprotein (oxLDL) for 2 hours in cells pre-incubated with FOL-026 peptides was assessed using H2O2 measurement (n=4-8 per group). Representative pictures of endothelial migration into an in vitro scratch injury were shown (FIG. 19a) and the wound closure rate (FIG. 19b) in HUVECs stimulated with increasing concentration of FOL-026 peptide was quantified by image J software (n=8-9 per group). Scale bar=150 um. Data are presented as means±SEM and acquired from 3 to 4 independent replicate tests. *P<0.05, **P<0.01, ****P<0.0001 by one-way ANOVA and Dunnett's post-hoc test.
The efficiency of small interfering RNA transfection for 48 hours in HUVECs was confirmed by qRT-PCR (n=4) (FIG. 22a). Effect of FOL-026 peptide stimulation on cell proliferation (FIG. 22b) and cell apoptosis at 0.1% oxygen (FIG. 22c) in HUVECs transfected with siRNA-NC or siNRP-1 was evaluated by BrdU incorporation (n=4-7 per group) and active caspase-3/-7 ((n=4-7 per group). Representative pictures of endothelial cells at 0 and 5 hours after scratch wounding are shown in 23a. The wound closure rate (FIG. 23b) of siRNA-NC/siNRP-1-transfected HUVECs stimulated with increasing concentration of FOL-026 peptide was quantified by image J software (n=9-12 per group). Scale bar=150 um. Data are presented as means±SEM and acquired from 3 to 4 independent replicate tests. *P<0.05, **P<0.01, ***P<0.001, ****P<0.0001 by Student's t test for A, two-way ANOVA followed with Sidak's and Dunnett's multiple comparisons test for B, C and E.
The endothelial cell proliferation (FIG. 29a) was assessed with BrdU uptake in human umbilical vascular endothelial cells (HUVECs) stimulated with increasing concentration of FOL-005 peptide for 48 hours (n=7-10 per group).

For VDTYDGDISVVYGLR [FOL-005], the “smooth muscle cell proliferation (BrdU incorporation)” value in experiment [1] is given as “increases”. Moreover, the “proliferation of human umbilical vascular endothelial cells (BrdU uptake)” value in experiment [2] (HUVECs) is reported as “increases”.
AEIDSIELSYGIK [FOL56]: in experiment [1], the “vascular smooth muscle cell proliferation (DNA synthesis, uptake of BrdU, O.D. 450 nm)” value is listed as “significant increase in proliferation; also recorded: increases proliferation at all concentrations”. The “endothelial cell proliferation (DNA synthesis, uptake of BrdU, O.D. 450 nm)” value in experiment [2] (HUVECs) was “significant increase in proliferation; also recorded: increases proliferation at all concentrations”.
On to VDTYDGGISVVYGLR [FOL-026], for which the “vascular smooth muscle cell proliferation (DNA synthesis, uptake of BrdU, O.D. 450 nm)” value in experiment [1] (listed as FOL26) was “significant increase in proliferation; also recorded: increase in O.D. (450 nm)”. For the same sequence, the “smooth muscle cell proliferation (BrdU incorporation)” value in experiment [1] is recorded as “induces smooth muscle cell proliferation”. Besides, the “stimulation of endothelial cell proliferation (BrdU) after NRP-1 knock-down” value is “blocks the effect” in experiment [2] and “NRP-1 dependent” in experiment [2] (listed as FOL26). In addition, the “endothelial cell proliferation (DNA synthesis, uptake of BrdU, O.D. 450 nm)” value in experiment [2] (HUVECs, listed as FOL26) is given as “significant increase in proliferation; also recorded: increase in O.D. (450 nm)”. In addition, the “BrdU uptake after siRNA for NRP-1” value in experiment [2] (HUVECs, 10 and 100 nM) is “reduction”. For the same sequence, in experiment [2] (HUVECs), the “proliferation of human umbilical vascular endothelial cells (BrdU uptake)” value is on record as “increases”.
